# PubChem BioAssay (NCI)
#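 Test compounds were applied to cells in 96-well plates for 48 hours at 5 doses. GI50 = concentration required for 50% inhibition of growth. TGI denotes the concentration required for complete inhibition of growth.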
# Columns and labels:
# Test in all cases: NCI-60 cell line screen, 48 h
# SK-MEL-28 melanoma = system: SK-MEL-28 melanoma
# TK-10 renal = system: TK-10 renal
# MALME-3M melanoma = system: MALME-3M melanoma
# SK-OV-3 ovarian = system: SK-OV-3 ovarian
# SN12C renal = system: SN12C renal
# HOP-92 NSCLC = system: HOP-92 NSCLC
# DU-145 prostate = system: DU-145 prostate
# SNB-75 CNS = system: SNB-75 CNS
# SK-MEL-2 melanoma = system: SK-MEL-2 melanoma
# OVCAR-5 ovarian = system: OVCAR-5 ovarian
# BT-549 breast = system: BT-549 breast
# SW-620 colon = system: SW-620 colon
# EKVX NSCLC = system: EKVX NSCLC
# NCI/ADR-RES ovarian = system: NCI/ADR-RES ovarian
# A498 renal = system: A498 renal
# NCI-H226 lung = system: NCI-H226 lung
# SNB-19 CNS = system: SNB-19 CNS
# HOP-62 NSCLC = system: HOP-62 NSCLC
# U251 CNS = system: U251 CNS
# M14 melanoma = system: M14 melanoma
# LOX IMVI melanoma = system: LOX IMVI melanoma
# HCT-15 colon = system: HCT-15 colon
# SK-MEL-5 melanoma = system: SK-MEL-5 melanoma
# OVCAR-8 ovarian = system: OVCAR-8 ovarian
# HL-60(TB) leukemia = system: HL-60(TB) leukemia
# HCC-2998 colon = system: HCC-2998 colon
# UACC-257 melanoma = system: UACC-257 melanoma
# K-562 leukemia = system: K-562 leukemia
# A549 NSCLC = system: A549 NSCLC
# UO-31 renal = system: UO-31 renal
# NCI-H460 lung = system: NCI-H460 lung
# T-47D breast = system: T-47D breast
# SF-268 CNS = system: SF-268 CNS
# PC-3 prostate = system: PC-3 prostate
# HT29 colon = system: HT29 colon
# ACHN renal = system: ACHN renal
# RXF 393 renal = system: RXF 393 renal
# NCI-H23 lung = system: NCI-H23 lung
# HCT-116 colon = system: HCT-116 colon
# NCI-H522 lung = system: NCI-H522 lung
# MOLT-4 leukemia = system: MOLT-4 leukemia
# MCF7 breast = system: MCF7 breast
# MDA-MB-435 = system: MDA-MB-435
# 786-0 renal = system: 786-0 renal
# MDA-MB-231 breast = system: MDA-MB-231 breast
# SF-539 CNS = system: SF-539 CNS
# COLO 205 colon = system: COLO 205 colon
# HS 578T breast = system: HS 578T breast
# OVCAR-4 ovarian = system: OVCAR-4 ovarian
# UACC-62 melanoma = system: UACC-62 melanoma
# CAKI-1 renal = system: CAKI-1 renal
# OVCAR-3 ovarian = system: OVCAR-3 ovarian
# RPMI-8226 leukemia = system: RPMI-8226 leukemia
# SF-295 CNS = system: SF-295 CNS
# CCRF-CEM leukemia = system: CCRF-CEM leukemia
# IGROV1 ovarian = system: IGROV1 ovarian
# KM12 colon = system: KM12 colon
smiles,measurement,setting,value
CC1CCC(C(C)C2C(O)CC3C4CC=C5CC(O)CCC5(C)C4CCC32C)NC1 (centres undefined),TGI,SK-MEL-28 melanoma,> 100 µM
same,TGI,TK-10 renal,30.4 µM
same,TGI,MALME-3M melanoma,55.2 µM
same,TGI,SK-OV-3 ovarian,> 100 µM
same,TGI,SN12C renal,47.2 µM
same,TGI,HOP-92 NSCLC,69.8 µM
same,TGI,DU-145 prostate,> 100 µM
same,TGI,SNB-75 CNS,> 100000 nM
same,TGI,SK-MEL-2 melanoma,> 100 µM
same,TGI,OVCAR-5 ovarian,> 100 µM
same,TGI,BT-549 breast,> 100 µM
same,TGI,SW-620 colon,> 100 µM
same,TGI,EKVX NSCLC,> 100 µM
same,TGI,NCI/ADR-RES ovarian,58.2 µM
same,TGI,A498 renal,> 100 µM
same,TGI,NCI-H226 lung,> 100 µM
same,TGI,SNB-19 CNS,74.5 µM
same,TGI,HOP-62 NSCLC,66 µM
same,TGI,U251 CNS,70.3 µM
same,TGI,M14 melanoma,> 100 µM
same,TGI,LOX IMVI melanoma,51 µM
same,TGI,HCT-15 colon,> 100 µM
same,TGI,SK-MEL-5 melanoma,> 100 µM
same,TGI,OVCAR-8 ovarian,29.3 µM
same,TGI,HL-60(TB) leukemia,52.8 µM
same,TGI,HCC-2998 colon,53.1 µM
same,TGI,UACC-257 melanoma,> 100 µM
same,TGI,K-562 leukemia,> 100 µM
same,TGI,A549 NSCLC,> 100 µM
same,TGI,UO-31 renal,> 100000 nM
same,TGI,NCI-H460 lung,> 100 µM
same,TGI,T-47D breast,> 100 µM
same,TGI,SF-268 CNS,> 100 µM
same,TGI,PC-3 prostate,95.4 µM
same,TGI,HT29 colon,> 100000 nM
same,TGI,ACHN renal,> 100 µM
same,TGI,RXF 393 renal,> 100 µM
same,TGI,NCI-H23 lung,> 100 µM
same,TGI,HCT-116 colon,> 100 µM
same,TGI,NCI-H522 lung,> 100 µM
same,TGI,MOLT-4 leukemia,35.8 µM
same,TGI,MCF7 breast,> 100 µM
same,TGI,MDA-MB-435,65.8 µM
same,TGI,786-0 renal,89.9 µM
same,TGI,MDA-MB-231 breast,81.6 µM
same,TGI,SF-539 CNS,> 100 µM
same,TGI,COLO 205 colon,> 100000 nM
same,TGI,HS 578T breast,> 100 µM
same,TGI,OVCAR-4 ovarian,53.4 µM
same,TGI,UACC-62 melanoma,> 100 µM
C=C(C)[C@@H]1CC[C@]2(COC(C)=O)CC[C@]3(C)[C@H](CC[C@@H]4[C@@]5(C)CCCN(C(C)=O)C(C)(C)[C@@H]5CC[C@]43C)[C@@H]12,GI50,SK-MEL-28 melanoma,1820 nM
same,TGI,SK-MEL-28 melanoma,3.33 µM
same,GI50,TK-10 renal,1710 nM
same,TGI,TK-10 renal,3.18 µM
same,GI50,MALME-3M melanoma,1570 nM
same,TGI,MALME-3M melanoma,3.05 µM
same,GI50,CAKI-1 renal,1580 nM
same,TGI,CAKI-1 renal,2960 nM
same,GI50,SK-OV-3 ovarian,1970 nM
same,TGI,SK-OV-3 ovarian,4.19 µM
same,GI50,OVCAR-3 ovarian,1930 nM
same,TGI,OVCAR-3 ovarian,3.75 µM
same,GI50,SN12C renal,1750 nM
same,TGI,SN12C renal,3.33 µM
same,GI50,HOP-92 NSCLC,1310 nM
same,TGI,HOP-92 NSCLC,2.7 µM
same,GI50,DU-145 prostate,1750 nM
same,TGI,DU-145 prostate,3.29 µM
same,GI50,SNB-75 CNS,1480 nM
same,TGI,SNB-75 CNS,2880 nM
same,GI50,SK-MEL-2 melanoma,1880 nM
same,TGI,SK-MEL-2 melanoma,3.54 µM
same,GI50,OVCAR-5 ovarian,1660 nM
same,TGI,OVCAR-5 ovarian,3.19 µM
same,GI50,BT-549 breast,2410 nM
same,TGI,BT-549 breast,6.41 µM
same,GI50,SW-620 colon,1750 nM
same,TGI,SW-620 colon,3.47 µM
same,GI50,EKVX NSCLC,1580 nM
same,TGI,EKVX NSCLC,3.2 µM
same,GI50,NCI/ADR-RES ovarian,1890 nM
same,TGI,NCI/ADR-RES ovarian,3.68 µM
same,GI50,A498 renal,9.84 µM
same,TGI,A498 renal,23.4 µM
same,GI50,NCI-H226 lung,2200 nM
same,TGI,NCI-H226 lung,5.04 µM
same,GI50,SNB-19 CNS,1810 nM
same,TGI,SNB-19 CNS,3.27 µM
same,GI50,HOP-62 NSCLC,1690 nM
same,TGI,HOP-62 NSCLC,3.16 µM
same,GI50,RPMI-8226 leukemia,1980 nM
same,TGI,RPMI-8226 leukemia,4.19 µM
same,GI50,U251 CNS,1690 nM
same,TGI,U251 CNS,3.15 µM
same,GI50,M14 melanoma,1900 nM
same,TGI,M14 melanoma,3.92 µM
same,GI50,LOX IMVI melanoma,1450 nM
same,TGI,LOX IMVI melanoma,2.76 µM
same,GI50,HCT-15 colon,1650 nM
same,TGI,HCT-15 colon,3.05 µM
same,GI50,SK-MEL-5 melanoma,1780 nM
same,TGI,SK-MEL-5 melanoma,3.19 µM
same,GI50,OVCAR-8 ovarian,1840 nM
same,TGI,OVCAR-8 ovarian,3.42 µM
same,GI50,HL-60(TB) leukemia,1900 nM
same,TGI,HL-60(TB) leukemia,3.82 µM
same,GI50,HCC-2998 colon,1670 nM
same,TGI,HCC-2998 colon,3.16 µM
same,GI50,UACC-257 melanoma,1740 nM
same,TGI,UACC-257 melanoma,3.31 µM
same,GI50,SF-295 CNS,1690 nM
same,TGI,SF-295 CNS,3.12 µM
same,GI50,K-562 leukemia,1580 nM
same,TGI,K-562 leukemia,4.14 µM
same,GI50,A549 NSCLC,1690 nM
same,TGI,A549 NSCLC,3.23 µM
same,GI50,UO-31 renal,1380 nM
same,TGI,UO-31 renal,2680 nM
same,GI50,NCI-H460 lung,1900 nM
same,TGI,NCI-H460 lung,3.72 µM
same,GI50,CCRF-CEM leukemia,1870 nM
same,TGI,CCRF-CEM leukemia,4.95 µM
same,GI50,T-47D breast,1630 nM
same,TGI,T-47D breast,3.22 µM
same,GI50,SF-268 CNS,3.37 µM
same,TGI,SF-268 CNS,13.5 µM
same,GI50,PC-3 prostate,1580 nM
same,TGI,PC-3 prostate,3.23 µM
same,GI50,HT29 colon,1520 nM
same,TGI,HT29 colon,2950 nM
same,GI50,IGROV1 ovarian,1810 nM
same,TGI,IGROV1 ovarian,3.37 µM
same,GI50,ACHN renal,1700 nM
same,TGI,ACHN renal,3.07 µM
same,GI50,KM12 colon,1830 nM
same,TGI,KM12 colon,3.42 µM
same,GI50,RXF 393 renal,1590 nM
same,TGI,RXF 393 renal,3.02 µM
same,GI50,NCI-H23 lung,1890 nM
same,TGI,NCI-H23 lung,3.53 µM
same,GI50,HCT-116 colon,1770 nM
same,TGI,HCT-116 colon,3.31 µM
same,GI50,NCI-H522 lung,1650 nM
same,TGI,NCI-H522 lung,3.24 µM
same,GI50,MOLT-4 leukemia,1840 nM
same,TGI,MOLT-4 leukemia,4.2 µM
same,GI50,MCF7 breast,1450 nM
same,TGI,MCF7 breast,3.13 µM
same,GI50,MDA-MB-435,1480 nM
same,TGI,MDA-MB-435,2.85 µM
same,GI50,786-0 renal,1750 nM
same,TGI,786-0 renal,3.22 µM
same,GI50,MDA-MB-231 breast,1750 nM
same,TGI,MDA-MB-231 breast,3.46 µM
same,GI50,SF-539 CNS,1670 nM
same,TGI,SF-539 CNS,3.06 µM
same,GI50,COLO 205 colon,1190 nM
same,TGI,COLO 205 colon,2550 nM
same,GI50,HS 578T breast,1850 nM
same,TGI,HS 578T breast,4.05 µM
same,GI50,OVCAR-4 ovarian,1570 nM
same,TGI,OVCAR-4 ovarian,3.13 µM
same,GI50,UACC-62 melanoma,1790 nM
same,TGI,UACC-62 melanoma,3.23 µM
